This passage reports EC50, selectivity ratio and IC50 results from ChEMBL document CHEMBL1150027, “Apigenin-7-O--D-glucopyranoside, an anti-HIV principle from Kummerowia striata” (Bioorg Med Chem Lett, 1994).

Values after ≈ are worked out from the molar mass of the structure shown.

In series [1] the test system is H9. Put plainly: Inhibitory activity against HIV-1 IIIB replication in H9 cell line. The settings on record: Homo sapiens. Type of series: functional, cell-based.
Series [2] is described as follows: Ratio of IC50 to EC50 was expressed as therapeutic index. The settings on record: read-out: TI.
The subject of series [3] is H9. Kind of series: Inhibitory activity against H9 cells uninfected with HIV-1. It counts as functional, cell-based. The settings on record: Homo sapiens.

Turning to `O=c1c(O[C@@H]2O[C@H](CO)[C@@H](O)[C@H](O)[C@H]2O)c(-c2ccc(O)cc2)oc2cc(O)cc(O)c12` [ASTRAGALIN], the concentration giving a half-maximal response (EC50) in the series with H9 [1] was 80 µg/mL (≈ 178 µM). For the same compound, the selectivity ratio in series [2] was less than 1.25. In the series on H9 [3], the half-inhibitory concentration (IC50) is less than 100 µg/mL.
In the series on H9 [1], `O=c1cc(-c2ccc(O)cc2)oc2cc(O[C@@H]3O[C@H](CO)[C@@H](O)[C@H](O)[C@H]3O)cc(O)c12` [APIGETRIN] had an EC50 of 1.8 µg/mL (≈ 4.16 µM). Also, in series [2], the selectivity ratio was more than 55.6. This compound had a half-maximal inhibitory concentration (IC50) in the series on H9 [3] of more than 100 µg/mL.
Turning to `O=c1c(O)c(-c2ccc(O)c(O)c2)oc2cc(O)cc(O)c12` [QUERCETIN], the EC50 in the series on H9 [1] was determined as 1.6 µg/mL (≈ 5.29 µM). The selectivity ratio in series [2] was less than 2.5. The same compound had an IC50 with H9 [3] of less than 4 µg/mL.
In the series with H9 [1], `O=c1cc(-c2ccc(O)cc2)oc2cc(O)cc(O)c12` [APIGENIN] returned a half-maximal effective concentration (EC50) of 9 µg/mL (≈ 33.3 µM). In addition, the selectivity ratio in series [2] is 4. For the same compound, the half-inhibitory concentration (IC50) in the series with H9 [3] stood at 35 µg/mL (≈ 130 µM).
